The values that follow come from publication PMC9118204, “Novel Dihydropyrimidinone Derivatives as Potential P-Glycoprotein Modulators” (ACS Omega, 2022).

Molecules are shown by their SMILES.

Data set [1] relates to colorectal adenocarcinoma (Caco-2) cell line. Put plainly: MTT cytotoxicity assay against Caco-2 cells. In kind it is cell-based. How it is done: The colorectal adenocarcinoma Caco-2 cell line was generously provided by the Zydus Research Centre, Ahmedabad, Gujarat, India. These cells were maintained in DMEM (Hi-Media) containing 25 mM HEPES buffer, 1000 mg/L glucose, L-glutamine, sodium bicarbonate, and sodium pyruvate and supplemented with 20% heat-inactivated FBS (cell clone), 1% (v/v) minimal essential medium nonessential amino acids (Hi-Media), antibiotic, and antimycotic (penicillin, streptomycin, and amphotericin B; Hi-Media) in a humidified atmosphere of 5% CO2 at 37 °C. […] Caco-2 VB cells, which overexpress hPGP, were generated by growing Caco-2 cells in the presence of 1 μg/mL vinblastine. The drug was removed from the culture medium 2–3 days prior to using the Caco-2 VB cells in the biological assays.
Caco-2 cells were cultured in 96-well plates until they reached 70–80% confluency and then treated with the TRZ-DHPM derivatives (0.1–100 μM). Cytotoxicity was determined using an MTT (3-(4,5-dimethylthiazol-2-yl)-2,5-diphenyltetrazolium bromide) assay as described previously.[31]

[2] abbreviates: Homo sapiens, Caco-2 cell line (Table S3).
Where [3] appears, read: Homo sapiens, Caco-2 cell line, MTT assay (Table 1).

What is called melting point is the temperature of the solid-liquid transition. The term IC50 denotes the point on the concentration scale where inhibition reaches its midpoint. In the case of `CC(=O)C1=C(C)NC(=O)NC1c1ccccc1OCc1cn(-c2ccc([N+](=O)[O-])cc2)nn1` (stereo not shown) [6ac′, 5-Acetyl-6-methyl-4-(2-((1-(4-nitrophenyl)-1H-1,2,3-triazol-4-yl)methoxy)phenyl)-3,4-dihydropyrimidin-2(1H)-one], the melting point fell in the range of 148 to 150 °C. For the same molecule, in data set [1] (setting [2]), the IC50 stood at 2 ± 0.53 µM.
For `CC(=O)C1=C(C)NC(=O)NC1c1ccccc1OCc1cn(-c2cccc(Br)c2)nn1` (stereo not shown) [6ae′], it took 2 ± 1.2 µM to reach half-maximal inhibition in data set [1] (Caco-2 cell line (Table S3)) (IC50).
For `CC(=O)C1=C(C)NC(=O)NC1c1ccccc1OCc1cn(-c2c(Cl)cc(Cl)cc2Cl)nn1` (stereo not shown) [6af′, 5-Acetyl-6-methyl-4-(2-((1-(2,4,6-trichlorophenyl)-1H-1,2,3-triazol-4-yl)methoxy)phenyl)-3,4-dihydro-pyrimidin-2(1H)-one], the melting point lay within 139 to 141 °C. This molecule also came in with an IC50 in data set [1] (setting [2]) of 3.7 ± 0.3 µM.
`CC(=O)C1=C(C)NC(=O)NC1c1ccc(OCc2cn(-c3ccccc3)nn2)cc1` (stereo not shown) [6ba′, 5-Acetyl-6-methyl-4-(4-((1-phenyl-1H-1,2,3-triazol-4-yl)methoxy)phenyl)-3,4-dihydropyrimidin-2(1H)-one] had a melting point of 133 to 135 °C. The molecule further returned an IC50 in data set [1] (setting [2]) of 2.2 ± 0.2 µM.
On the same counts, the results for `CC(=O)C1=C(C)NC(=O)NC1c1ccc(OCc2cn(-c3ccccc3[N+](=O)[O-])nn2)cc1` (stereo not shown) [6bb′, 5-Acetyl-6-methyl-4-(4-((1-(2-nitrophenyl)-1H-1,2,3-triazol-4-yl)methoxy)phenyl)-3,4-dihydropyrimidin-2(1H)-one] are 157 to 159 °C and 1.6 ± 0.1 µM.
On the same counts, the results for `CC(=O)C1=C(C)NC(=O)NC1c1ccc(OCc2cn(-c3ccc([N+](=O)[O-])cc3)nn2)cc1` (stereo not shown) [6bc′, 5-Acetyl-6-methyl-4-(4-((1-(4-nitrophenyl)-1H-1,2,3-triazol-4-yl)methoxy)phenyl)-3,4-dihydropyrimidin-2(1H)-one] are 134 to 136 °C and 2.44 ± 0.04 µM.
On the same counts, the results for `CC(=O)C1=C(C)NC(=O)NC1c1ccc(OCc2cn(-c3c(Cl)cc(Cl)cc3Cl)nn2)cc1` (stereo not shown) [6bf′, 5-Acetyl-6-methyl-4-(4-((1-(2,4,6-trichlorophenyl)-1H-1,2,3-triazol-4-yl)methoxy)phenyl)-3,4-dihydro-pyrimidin-2(1H)-one] are 135 to 137 °C and 1.5 ± 0.07 µM.
With `COc1cc(C2NC(=O)NC(C)=C2C(C)=O)ccc1OCc1cn(-c2ccccc2)nn1` (stereo not shown) [6da′, 5-Acetyl-4-(3-methoxy-4-((1-phenyl-1H-1,2,3-triazol-4-yl)methoxy)phenyl)-6-methyl-3,4-dihydropyrimidin-2(1H)-one], the melting point was in the range of 151 to 153 °C. This molecule returned an IC50 in data set [1] (setting [2]) of 2.56 ± 0.04 µM.
Take `COc1cc(C2NC(=O)NC(C)=C2C(C)=O)ccc1OCc1cn(-c2ccccc2[N+](=O)[O-])nn1` (stereo not shown) [6db′, 5-Acetyl-4-(3-methoxy-4-((1-(2-nitrophenyl)-1H-1,2,3-triazol-4-yl)methoxy)phenyl)-6-methyl-3,4-dihydropyri-midin-2(1H)-one]: the IC50 in data set [1] (Caco-2 cell line (Table S3)) stood at 2.29 ± 0.09 µM.
`COc1cc(C2NC(=O)NC(C)=C2C(C)=O)ccc1OCc1cn(-c2ccc([N+](=O)[O-])cc2)nn1` (stereo not shown) [6dc′, 5-Acetyl-4-(3-methoxy-4-((1-(4-nitrophenyl)-1H-1,2,3-triazol-4-yl)methoxy)phenyl)-6-methyl-3,4-dihydro-pyrimidin-2(1H)-one]: the melting point was 159 to 161 °C. In data set [1] (setting [2]), this molecule yielded an IC50 of 2.97 ± 0.03 µM.
In data set [1] (Caco-2 cell line, MTT assay (Table 1)), `N.N.O=C([O-])C1(C(=O)[O-])CCC1.[Pt+2]` [carboplatin, reference compound] displayed an IC50 of 7 ± 2 µM.
In turn, `COc1cccc2c1C(=O)c1c(O)c3c(c(O)c1C2=O)C[C@@](O)(C(C)=O)C[C@@H]3O[C@H]1C[C@H](N)[C@H](O)[C@H](C)O1` [daunorubicin, reference compound] showed an IC50 in data set [1] (setting [3]) of 14 ± 2 µM.
For the molecule `Nc1ccn([C@@H]2O[C@H](CO)[C@@H](O)C2(F)F)c(=O)n1` [gemcitabine, reference compound], the IC50 in data set [1] (setting [2]) came to 4.5 ± 0.98 µM; in data set [1] (setting [3]), 5 ± 1 µM.
